Source: PubChem BioAssay AID687031 (Broad Institute, 2013)

System: BHK-21 DENV2 CPE protection, ATP luminescence, 5 d
Assay: Dengue virus 2 cytopathic effect protection, dose response, BHK-21 cells, ATP luminescence, cherry-pick (AID 687031)

SMILES	AC30
CCCNC(=O)C[C@H]1CC[C@@H]2[C@H](COC[C@@H](O)CN2C(=O)c2ccccn2)O1	17.3 µM
CSc1ccccc1OCc1cc(C(=O)N2CCc3[nH]cnc3C2c2ccccn2)no1 (centres undefined)	9.97 µM
O=C(O)C1C2C=CC(C2)C1C(=O)NCc1ccccc1 (centres undefined)	15.5 µM
CS(=O)(=O)N1C[C@@H]2N[C@H](C1)[C@@H]2c1ccc(-c2ccccc2)cc1	5.51 µM
COCCNC(=O)CCC1CCN(C/C=C/c2ccccc2OC)CC1	19.3 µM
OC(CSc1nnnn1-c1ccccc1)Cn1c2ccccc2c2ccccc21 (centres undefined)	18.8 µM
CC(C)[C@H](NC(=O)N1C[C@H]2C[C@@H](C1)c1cccc(=O)n1C2)C(=O)Nc1ccccc1F	16.2 µM
Nc1ncccc1C(=O)OCC(=O)N1CCN(S(=O)(=O)c2ccc(Cl)cc2)CC1	19 µM
O=S(=O)(c1ccc2c(c1)OCCO2)N1CCCN(S(=O)(=O)c2c(F)cccc2F)CC1	17.5 µM
O=C(c1ccccc1)N1CC[C@@H]2[C@H](CO)Nc3ccc(C#Cc4cccc(F)c4)cc3[C@@H]21	3.21 µM
C[C@H](NC(=O)[C@H]1N[C@H]2c3ccc(-c4cccnc4)c(=O)n3C[C@H]2[C@@H]1CO)c1ccccc1	12.5 µM
COc1ccc(C(N)c2csc(Nc3cc(Oc4ccccc4)ncn3)n2)cc1 (centres undefined)	17.4 µM
COC(=O)[C@H]1CN(C(=O)c2ccccc2)C(=O)N1	5.13 µM
CCNS(=O)(=O)c1ccc(Br)c(C(=O)OC(C)C(=O)NCC2CCCCC2)c1 (centres undefined)	2.25 µM
CCN(CC)CC(=O)N1CCCC(N2CCN(c3cccc(C(F)(F)F)c3)CC2)C1 (centres undefined)	19.1 µM
CN(C)CC(=O)Nc1ccc2c(c1)[C@@H]1C[C@@H](CC(=O)NC3CCCCC3)O[C@H](CO)[C@@H]1O2	8.06 µM
COc1cccc(-c2ccc(C3[C@@H]4CN(S(=O)(=O)c5cn(C)cn5)C[C@H]3N4)cc2)c1 (some centres undefined)	7.87 µM
Cc1cccc([C@@H]2[C@@H]3C(=O)N(C)C(=O)[C@@H]3[C@@H]3C(=O)Nc4ccccc4C(=O)N23)c1	18.7 µM
Cc1cc(F)cc(-c2cc(C(=O)NCC3CCCCC3)[nH]n2)c1	10 µM
CCc1c(C2(O)CCCCC2)[nH]c2c(C(=O)OC)cc(Cl)cc12	12.3 µM
CC(=O)N1CCN(C(=O)COC(=O)COc2c(C)cc(C)cc2C)CC1	11.7 µM
CCC[C@@H]1CCCO[C@@](C(=O)NCc2ccccn2)(C(F)(F)F)C1	10 µM
CC1CCN(C(=O)COC(=O)CNC(=O)c2ccccc2F)CC1	19.4 µM
O=C(C1CCOCC1)N1C[C@H]2[C@@H](c3ccccc31)[C@@H](CO)N2C(=O)c1ccccc1	18.8 µM
Cc1ccccc1S(=O)(=O)N1CC[C@@H]2[C@H](CO)Nc3ccc(-c4cccc(C#N)c4)cc3[C@@H]21	15.9 µM

SMILES	AC30
Cc1noc(C)c1NC(=O)Nc1ccc2c(c1)C(=O)N([C@@H](C)CO)C[C@@H](C)[C@@H](CN(C)S(C)(=O)=O)OCCCC[C@@H](C)O2	18.6 µM
c1ccc(C2CC2)c(OCC2=NCCN2)c1	9.54 µM
FC(F)(F)c1cccnc1Oc1ccc(C2=NCCS2)cc1	8.01 µM
O=C1[C@@H](Oc2ccccc2)[C@@H](c2ccncc2)N1c1ccccc1	14.2 µM
COC(=O)N1CCCCC1c1cc(C(=O)Nc2ccc(OC)cc2C)no1 (centres undefined)	13 µM
Cc1cc(F)ccc1C(O)c1ncc(-c2ccccc2C(F)(F)F)[nH]1 (centres undefined)	18.4 µM
CCOC(=O)N1CCN(C(C(=O)NC2CCCC2)C(C)C)CC1 (centres undefined)	9.37 µM
Cc1cc(OC(C)C(=O)NC2CC(C)(C)NC(C)(C)C2)c2c(C)c(C)c(=O)oc2c1 (centres undefined)	2.89 µM
CC1CCCN(C(=O)c2ccc(S(=O)(=O)Nc3ccccc3Cl)cc2)C1 (centres undefined)	13.5 µM
COc1ccc(CN2CCNC(=O)C2CC(=O)NCC2CCOCC2)c(C)c1C (centres undefined)	15.7 µM
Cc1c(C(=O)OC(C)C)sc(N)c1C(=O)OC(C)C	18.6 µM
C[C@H](CO)N1C[C@H](C)[C@H](CN(C)C(=O)Nc2ccc(-c3ccccc3)cc2)OCc2ccccc2-c2c(n(C)c3ccccc23)C1=O	17.7 µM
CCN(CC(=O)NCC(=O)Nc1cccc(C)c1C)Cc1ccccc1	19.3 µM
CC1CCN(CCOc2ccc(OCc3ccccc3)cc2)CC1	11.3 µM
Cc1cc(C)cc(NC(=O)Cn2nnc(C(=O)NCc3cccs3)c2N)c1	13.3 µM
NC(=O)c1ccsc1NC(=O)COC(=O)[C@@H]1CCCN1C(=O)c1cccs1	11 µM
Cn1cnc(S(=O)(=O)N[C@@H]2C=C[C@H](CC(=O)N3CCN(c4ccccc4)CC3)O[C@@H]2CO)c1	17 µM
Cc1ccc(C(=O)NCC(=O)NCC(c2cccs2)N2CCOCC2)cc1C (centres undefined)	14.8 µM
C[C@H](NC(=O)CCCOc1ccc(Cl)cc1Cl)c1nnc2ccccn12	16.2 µM
C[C@@H]1CCCCO[C@H](CN(C)S(=O)(=O)c2ccccc2)[C@@H](C)CN([C@@H](C)CO)C(=O)c2cc(NC(=O)c3ccncc3)ccc2O1	17.6 µM
CCOc1ccc2[nH]cc(S(=O)(=O)c3ccc(C)cc3)c(=O)c2c1	13 µM
CC1CCCC(NC(=O)COC(=O)c2ccccc2Sc2ccccc2C#N)C1C (centres undefined)	12.7 µM
COC(=O)[C@@H]1[C@@H](CO)[C@@H]2Cn3c(ccc(C4=CCCC4)c3=O)[C@H]1N2Cc1ccccn1	17.2 µM
Oc1cccc2nc3ccccc3nc12	14.4 µM
